From patent US20260125374A1, “PI3K-ALPHA INHIBITORS AND METHODS OF MAKING AND USING THE SAME” (Relay Therapeutics, Inc., priority 2021, published 2026)
Values after ≈ are worked out from the molar mass of the structure shown.

Experiments:
Assay type in all cases: physicochemical
[1] = Solubility study at 37° C. (buffer, water, bio-relevant media, MeOH/DCM)
Procedure: In addition, residual solids were checked by chiral HPLC to confirm whether racemization occurs.
Accurate 4 mg of I-1 Form A, 5.13 mg of I-3 Form A, 4.63 mg of I-4 Form A was weighed into a 8 mL glass vial, respectively. 2 mL of solubility medium was added. The salt amount used is equivalent to 4 mg anhydrous free form. Obtained suspensions/solutions were stirred at 37° C. at 400 rpm for 2 hours and 24 hours and then centrifuged at 37° C. at 14,000 rpm for 5 min. Supernatants were analyzed by UPLC and PH meter for solubility and pH value, respectively. Residual solids (wet cakes) were characterized by XRPD to determine physical form and then analyzed by HPLC for chiral purity.

Hygroscopicity by DVS = conditions: for 1st Desorp. (%) / 1st Sorp. (%) / 2nd Desorp. (%) / 2nd Sorp. (%): DVS 25° C.
Procedure: • Method 1 (for I-1 Form A and I-3 Form A) • Instrument Intrinsic, Advantage or Adventure • Total gas flow 200 sccm • Oven temperature 25° C. • Solvent Water • Method Cycle: 40-0-95-0-40% RH • Stage Step: 10% • Equilibrium: 0.002 dm/dt (%/min) • Minimum dm/dt stability duration: 60 min • Maximum dm/dt stage time: 360 min • Method 2 (for I-4 Form A) • Instrument Intrinsic, Advantage or Adventure • Total gas flow 200 sccm • Oven temperature 25° C. • Solvent Water • Method Cycle: 40-95-0-95-40% RH • Stage Step: 10% • Equilibrium: 0.002 dm/dt (%/min) • Minimum dm/dt stability duration: 60 min • Maximum dm/dt stage time: 360 min
I-1 Form A is hygroscopic. It absorbs about 5.5% water by weight from 40% RH to 95% RH. […] It absorbs about 40% water by weight from 40% RH to 95% RH. Form changed after the DVS test. […] It starts to absorb water when RH>40% and potential hydrate form generates at high humidity based on DVS data. The sorption and desorption are reversible.
Water sorption and desorption behavior of I-1 Form A, I-3 Form A, and I-4 Form A was investigated by DVS at 25° C. with a cycle of 40-0-95-0-40% RH, dm/dt 0.002, min. equilibration time 60 min and max. equilibration time 360 min. XRPD was measured after the DVS test to determine form change.

[2] = Salt screening (XRPD, chiral purity of hits)
Procedure: Based on the pKa of I-1 free form, 23 counter ions were selected as salt/cocrystal forming agents. Methanol, acetone and isopropyl acetate were used as screening solvents. 1.0 equivalent of selected counter ions/coformers was applied for salt screening. Slurry equilibration, slow evaporation and anti-solvent addition were used as crystallization methods. In total, about 70 screening experiments were conducted.
About 50 mg of I-1 Form A were added to a suitable amount of solvent and 1.0 equivalent of counter ions were added under stirring at 50° C. for 2 hours and then at 25° C. for at least 12 hours. MeOH, acetone and IPAc were used as screening solvents.
Obtained suspensions were taken out and centrifuged. Solids obtained were analyzed by XRPD and salt screening results were summarized in Table 5.1, Table 5.2, and Table 5.3.

[3] = FaSSIF-V1, pH 6.5, 2 hours, listed as I-3 Form A
[4] = FaSSIF-V1, pH 6.5, 24 hours, listed as I-3 Form A
[5] = FeSSIF-V1, pH 5.0, 2 hours, listed as I-3 Form A
[6] = FeSSIF-V1, pH 5.0, 24 hours, listed as I-3 Form A
[7] = SGF, pH 2.0, 24 hours, listed as I-3 Form A
[8] = Water, 24 hours, listed as I-3 Form A
[9] = pH 2, HCl, 24 hours, listed as I-3 Form A
[10] = crystalline hits of salt screening, listed as I-3 Form A

With `N#Cc1c(-c2cc(NC(=O)c3cc(F)cc(C(F)(F)F)c3)c3c(c2)C(=O)N[C@H]3c2cc(F)ccc2Cl)ccc2ncnn12` [Compound I-3] the “Chiral purity” value [1, 3] was “purity: 96.1%)”, the Solubility [1, 3] was 52.2 μg/mL (chiral and the “Chiral purity (solids)” value [1, 4] was 98.4%). The Solubility [1, 4] was 0.7 µg/mL (≈ 1.15 µM), the pH of supernatant [1, 4] was 6.17 and the “Chiral purity” value [1, 5] was “purity: 97.1%)”. The Solubility [1, 5] was 176.1 μg/mL(chiral, the “Chiral purity (solids)” value [1, 6] was 66.4%) and the Solubility [1, 6] was 19.0 µg/mL (≈ 31.2 µM). The pH of supernatant [1, 6] was 4.86, the Solubility ([1]; MeOH/DCM (1:2, v/v), 2 hours, listed as I-3 Form A) was >75000 µg/mL and the Solubility ([1]; MeOH/DCM (1:2, v/v), 24 hours, listed as I-3 Form A) was >75000 µg/mL. The Solubility ([1]; SGF, pH 2.0, 2 hours, listed as I-3 Form A) was 4.2 µg/mL (≈ 6.9 µM), the “Chiral purity (solids)” value [1, 7] was 98.3%) and the Solubility [1, 7] was 1.3 µg/mL (≈ 2.13 µM). For the same compound, the pH of supernatant [1, 7] was 1.92, the Solubility ([1]; Water, 2 hours, LOQ: 0.5 μg/mL) was “<LOQ” and the Solubility ([1]; Water, 24 hours, LOQ: 0.5 μg/mL) was “LOQ”. The “Chiral purity (solids)” value [1, 8] was 98.3%), the pH of supernatant [1, 8] was 2.54 and the “solubility in MeOH/DCM (1:2, v/v)” value ([1]; listed as I-3 Form A) was > 75000 µg/mL. For the same compound, the Solubility ([1]; pH 2, HCl, 2 hours, LOQ: 0.5 μg/mL) was “<LOQ”, the Solubility ([1]; pH 2, HCl, 24 hours, LOQ: 0.5 μg/mL) was “LOQ” and the “Chiral purity (solids)” value [1, 9] was 98.3%). The pH of supernatant [1, 9] was 1.86, the “1st Desorp. (%)” value (Hygroscopicity by DVS; 0% RH, listed as I-3 Form A) was 0.05% and the “1st Sorp. (%)” value (Hygroscopicity by DVS; 0% RH, listed as I-3 Form A) was 0.05%. The “2nd Desorp. (%)” value (Hygroscopicity by DVS; 0% RH, listed as I-3 Form A) was 0.00%, the “2nd Sorp. (%)” value (Hygroscopicity by DVS; 0% RH, listed as I-3 Form A) was 0.00% and the “2nd Desorp. (%)” value (Hygroscopicity by DVS; 10% RH) was 0.11%. For the same compound, the “1st Desorp. (%)” value (Hygroscopicity by DVS; 10% RH, listed as I-3 Form A) was 0.16%, the “1st Sorp. (%)” value (Hygroscopicity by DVS; 10% RH, listed as I-3 Form A) was 0.15% and the “2nd Sorp. (%)” value (Hygroscopicity by DVS; 10% RH, listed as I-3 Form A) was 0.10%. For the same compound, the “1st Desorp. (%)” value (Hygroscopicity by DVS; 20% RH, listed as I-3 Form A) was 0.27%, the “1st Sorp. (%)” value (Hygroscopicity by DVS; 20% RH, listed as I-3 Form A) was 0.26% and the “2nd Desorp. (%)” value (Hygroscopicity by DVS; 20% RH, listed as I-3 Form A) was 0.22%. The “2nd Sorp. (%)” value (Hygroscopicity by DVS; 20% RH, listed as I-3 Form A) was 0.21%, the “1st Desorp. (%)” value (Hygroscopicity by DVS; 30% RH, listed as I-3 Form A) was 0.40% and the “1st Sorp. (%)” value (Hygroscopicity by DVS; 30% RH, listed as I-3 Form A) was 0.38%. For the same compound, the “2nd Desorp. (%)” value (Hygroscopicity by DVS; 30% RH, listed as I-3 Form A) was 0.37%, the “2nd Sorp. (%)” value (Hygroscopicity by DVS; 30% RH, listed as I-3 Form A) was 0.35% and the “1st Desorp. (%)” value (Hygroscopicity by DVS; 40% RH, listed as I-3 Form A) was 0.69%. For the same compound, the “1st Sorp. (%)” value (Hygroscopicity by DVS; 40% RH, listed as I-3 Form A) was 0.67%, the “2nd Desorp. (%)” value (Hygroscopicity by DVS; 40% RH, listed as I-3 Form A) was 2.11% and the “2nd Sorp. (%)” value (Hygroscopicity by DVS; 40% RH, listed as I-3 Form A) was 0.81%. For the same compound, the “1st Sorp. (%)” value (Hygroscopicity by DVS; 50% RH, listed as I-3 Form A) was 2.34%, the “2nd Desorp. (%)” value (Hygroscopicity by DVS; 50% RH, listed as I-3 Form A) was 2.44% and the “1st Sorp. (%)” value (Hygroscopicity by DVS; 60% RH, listed as I-3 Form A) was 2.53%. For the same compound, the “2nd Desorp. (%)” value (Hygroscopicity by DVS; 60% RH, listed as I-3 Form A) was 2.64%, the “1st Sorp. (%)” value (Hygroscopicity by DVS; 70% RH, listed as I-3 Form A) was 2.84% and the “2nd Desorp. (%)” value (Hygroscopicity by DVS; 70% RH, listed as I-3 Form A) was 4.17%. For the same compound, the “1st Sorp. (%)” value (Hygroscopicity by DVS; 80% RH, listed as I-3 Form A) was 4.29%, the “2nd Desorp. (%)” value (Hygroscopicity by DVS; 80% RH, listed as I-3 Form A) was 4.45% and the “1st Sorp. (%)” value (Hygroscopicity by DVS; 90% RH, listed as I-3 Form A) was 4.64%. For the same compound, the “2nd Desorp. (%)” value (Hygroscopicity by DVS; 90% RH, listed as I-3 Form A) was 4.76%, the “1st Sorp. (%)” value (Hygroscopicity by DVS; 95% RH, listed as I-3 Form A) was 5.36% and the “2nd Desorp. (%)” value (Hygroscopicity by DVS; 95% RH, listed as I-3 Form A) was 5.36%. For the same compound, the “form after the DVS test (XRPD)” value (Hygroscopicity by DVS; listed as I-3 Form A) was “still I-3 Form A”, the “Salt screening result (slurry crystallization)” value (from here on “Salt screening result”) ([2]; 1.0 equiv. p-toluenesulfonic acid, Acetone) was “+ (I-3 Form A) (Salt hits)” and the “Salt screening result” value ([2]; 1.0 equiv. p-toluenesulfonic acid, Isopropyl acetate) was “+ (I-3 Form A) (Salt hits)”. For the same compound, the “Salt screening result” value ([2]; 1.0 equiv. p-toluenesulfonic acid, MeOH) was “+ (I-3 Form A) (Salt hits)”, the “chiral stability in salt screening and scale up solvents” value ([2]; MeOH, acetone and IPAc, acetone) was “good chiral stability” and the “Chiral purity (by HPLC)” value [2, 10] was 99.8%. For the same compound, the “Crystallinity (By XRPD)” value [2, 10] was “High” and the “Chiral purity of salt screening solid” value ([2]; slurry, 1.0 equiv. p-toluenesulfonic acid, Acetone) was “Chiral purity: 99.8%”.
